Source: patent US7855200B2, “Method for treatment of gastric ulcers and ulcers induced by aspirin” (Council of Scientific and Industrial Research, priority 2006, dated 2010)
Values joined by “and” are separate entries in the source; they are usually repeats but may differ in a detail not shown here. Equal entries are not always repeated.

Columns and labels:
Format in all cases: in vivo, albino rats
[1] = test system: acetyl salicylic acid induced gastric lesions; assay: Acetyl salicylic acid (aspirin) induced gastric ulcer; set-up: Ulcer index Mean(SE): scale not given here; details: rats, aspirin 200 mg/kg
Procedure: Stress induced gastric ulceration The commercially available drug ranitidine (sigma), Omeprazole (sigma) and sucralfate (Merck) were used as reference standard in experimental models. The Tween-80 (SD fine chemicals) was used as vehicle for the administration of the drug, which is used as control. Antiulcer activity of the compounds under taken was studied. The animals were divided into 20 groups of 6 animals each. Group 1 received the vehicle Tween 80 (1%, 1 ml) which served as the control. Group 2 received ranitidine at a dose of 50-mg/kg body weight, which served as standard for comparison. Group 3 to 20 at a dose of 25 mg/kg body weight. Rats were administered per orally with a daily dose of the compounds and the drug ranitidine for a period of five days and then fasted for 24 hours. The […] acetyl salicylic acid (aspirin) at a dose of 200 mg/kg body weight was administered as a suspension in tween-80 (1%), 30 min after the drug administration each day. All drugs were administered orally on the 6th day after the last administration of the drugs and the ulcer inducing agent aspirin, the rats were killed by cervical dislocation and their stomach were opened along the greater curvature and washed with luke warm saline and examined under a dissecting microscope. The ulcer index was calculated for each stomach. […] The antiulcer activity of the compounds was studied. The animals were divided into 19 groups of 6 animals each. Group 1 received the vehicle Tween 80 (1%, 1 ml) which served as the control. Group 2 received ranitidine at a dose of 50-mg/kg-body weight, which served as standard for comparison. […] Rats were administered per orally with a daily dose of the compounds and the drug ranitidine to respective groups for a period of five days and then fasted for 24 hours. The […] acetyl salicylic acid (aspirin) at a dose of 200 mg/kg body weight was administered as a suspension in tween-80 (1%), 30 min after the drug administration each day. All drugs were administered orally on ht […] day after the last administration of the drugs and the ulcer inducing agent aspirin, the rats were killed by cervical dislocation and their stomach were opened along the greater curvature and washed with luke warm saline and examined under a dissecting microscope.

Pylorus ligated rats = assay: Pylorus ligated ulcers; details: 4 hours after pylorus ligation
Description: (§1) The compounds taken under study for antigastric ulcer screening by four different models were selected using experimental albino rats: • 1. Aspirin induced gastric ulceration • 2. Pylorus ligated gastric ulceration • 3. Ethanol induced gastric ulceration • 4. Stress induced gastric ulceration
(§2) The commercially available drug ranitidine (sigma), Omeprazole (sigma) and sucralfate (Merck) were used as reference standard in experimental models. The Tween-80 (SD fine chemicals) was used as vehicle for the administration of the drug, which is used as control.
The animals were divided into 19 groups of 6 animals each. Animals were deprived of food for 48 hours but had free access to water. Group 1 received the vehicle Tween 80 (1%, 1 ml) which served as the control. Group 2 received ranitidine at a dose of 50-mg/kg-body weight, which served as standard for comparison. […] After one hour of administration of drug the stomach was ligated at the pylorus under ether anesthesia. 4 hours after pylorus ligation, the animals were sacrificed and the contents drained and centrifuges at 5000 rpm for 10 minutes. Aliquots of supernatant were used for determination of total acid by titrating with 0.01N NaOH using topfers reagent and phenolphthalein indicators. 4.
The animals were divided into 7 groups of 6 animals each. Animals were deprived of food for 48 hours but had free access to water. Group 1 received the vehicle Tween 80 (1%, 1 ml) which served as the control. Group 2 received ranitidine at a dose of 50-mg/kg-body weight, which served as standard for comparison. Group 3 to 7 received at a dose of 50, 25, 15, 10 and 5 mg/kg body weight respectively. After one hour of administration of drug the stomach was ligated at the pylorus under ether anesthesia. 4 hours after pylorus ligation, the animals were sacrificed and the contents drained and centrifuges at 5000 rpm for 10 minutes. Aliquots of supernatant were used for determination of total acid by titrating with 0.01N NaOH using topfers reagent and phenolphthalein indicators.

[2] = test system: gastric ulceration in cold restraint rats; assay: Cold restraint (stress) induced ulcers; set-up: Ulcer index Mean(SE): scale not given here
Description: as §1, §2
(§3) The antiulcer activity of the compounds was studied. The animals were divided into 21 groups of 7 animals each. Group 1 received the vehicle Tween 80 (1%, 1 ml) which served as the control. Group 2 received ranitidine at a dose of 50-mg/kg body weight, which served as standard for comparison. Group 3 to 21 at a dose of 25 mg/kg body weight. Animals were deprived of food 48 hours before the experiment. The water was allowed for free access. Rats were administered per orally with compounds and the drug ranitidine. The water was removed 1 hour before restraint and exposed to a temperature of 4° C. for 2 hours. Two hours after stress, the animals were sacrificed. The stressed animals were opened along the greater curvature and the severity of gastric ulcer was assessed in terms of mean ulcer index. 2.
as §3, with “8” for “21”, “6” for “7”, “50, 25, 15, 10 and 5” for “25”, “weight respectively.” for “weight.”, “index.” for “index. 2.”

[3] = test system: ethanol induced gastric ulcers; assay: Ethanol induced ulcers; details: rats, ethanol challenge; for Acidity Total mEg / Gastric content / pH: 4 hours after pylorus ligation
Procedure: Stress induced gastric ulceration The commercially available drug ranitidine (sigma), Omeprazole (sigma) and sucralfate (Merck) were used as reference standard in experimental models. The Tween-80 (SD fine chemicals) was used as vehicle for the administration of the drug, which is used as control. The animals were divided into 22 groups of 6 animals each. Animals were deprived of food for 48 hours but had free access to water. Group 1 received the vehicle Tween 80 (1%, 1 ml) which served as the control. Group 2 received ranitidine at a dose of 50-mg/kg-body weight, which served as standard for comparison. Group 3 to received Omeprazole at a dose of 30-mg/kg body weight, which served as standard for comparison. Group 4 received sucralfate at a dose of 400-mg/kg body weight, which served as standard for comparison. Group 5 to 22 received at a dose of 25 mg/kg body weight. Lesions were induced 1 hour after ethanol challenge animals. The stomach was ligated at the pylorus under ether anesthesia. 4 hours after pylorus ligation, the animals were sacrificed and the contents drained and centrifuges at 5000 rpm for 10 minutes. Aliquots of supernatant were used for determination of total acid by titrating with 0.01N NaOH using topfers reagent and phenolphthalein indicators. […] The animals were divided into 9 groups of 6 animals each. Animals were deprived of food for 48 hours but had free access to water. Group 1 received the vehicle Tween 80 (1%, 1 ml) which served as the control. Group 2 received ranitidine at a dose of 50-mg/kg-body weight, which served as standard for comparison. Group 3 to received Omeprazole at a dose of 30-mg/kg body weight, which served as standard for comparison. Group 4 received sucralfate at a dose of 400-mg/kg body weight, which served as standard for comparison. […] Lesions were induced 1 hour after ethanol challenge animals. The stomach was ligated at the pylorus under ether anesthesia. 4 hours after pylorus ligation, the animals were sacrificed and the contents drained and centrifuges at 5000 rpm for 10 minutes. Aliquots of supernatant were used for determination of total acid by titrating with 0.01N NaOH using topfers reagent and phenolphthalein indicators.

[4] = Rattus norvegicus, po, 120 h, 25 mg/kg per orally daily for five days
[5] = 25 mg/kg per orally daily for five days
[6] = Rattus norvegicus, po, rats, 25 mg/kg per orally, 4° C. for 2 hours
[7] = rats, 25 mg/kg per orally, 4° C. for 2 hours

Compound	inhibition at 25 mg/kg [1, 4] [%]	Ulcer index Mean(SE) [1, 5]	Acidity Total mEg (Pylorus ligated rats; 25 mg/kg)	Gastric content (Pylorus ligated rats; 25 mg/kg)	Ulcer index Mean(SE) (Pylorus ligated rats; 25 mg/kg)	pH (Pylorus ligated rats; 25 mg/kg)	inhibition at 25 mg/kg (Pylorus ligated rats; Rattus norvegicus, 25 mg/kg) [%]	inhibition at 25 mg/kg [2, 6] [%]	Ulcer index Mean(SE) [2, 7]	inhibition at 25 mg/kg ([3]; Rattus norvegicus, 25 mg/kg) [%]	Ulcer index Mean(SE) ([3]; 25 mg/kg)	Acidity Total mEg ([3]; 25 mg/kg)	Gastric content ([3]; 25 mg/kg)	pH ([3]; 25 mg/kg)	other results
CN(C)CCCOc1cc(O)c2c(=O)cc(-c3ccccc3)oc2c1 [CHN-2, 7-(3-Dimethylamino-propoxy)-5-hydroxy-2-phenyl chromen-4-one]	55.7	20.00	37.18 (±4.20) m Eg	1.80 (±0.46)	20.83 (±2.00)	4.25 (±0.09)	58.4	56.1	17.85	42.5	38.33 (±3.07)	28.10 (±0.48) mEg	3.2 (±0.42)	5.14 (±0.36)	–
CN1C(=O)CN=C(c2ccccc2)c2cc(Cl)ccc21 [Diazepam, reference compound]	–	–	–	–	–	–	–	–	–	–	–	–	–	–	inhibition at 1 mg/kg ([2]; Rattus norvegicus, 2 h): 75.4%; Ulcer index Mean(SE) ([2]; rats, 1 mg/kg, 4° C. for 2 hours): 10.00
COc1c(OC2OC(C(=O)O)C(O)C(O)C2O)cc2oc(-c3ccccc3)cc(=O)c2c1O (stereo not drawn) [OA-5 acid, 3,4,5-Trihydroxy-6-(5-hydroxy-6-methoxy-4-oxo-2-phenyl-4H-chromen-7-yloxy)-tetrahydro-pyran-2-carboxylic acid]	48.3	23.33	41.00 (±0.57) m Eg	2.16 (±0.16)	38.33 (±1.66)	3.03 (±0.03)	23.5	41.9	23.33	45	36.66 (±3.33)	47.66 (±1.45) mEg	5.50 (±0.28)	3.20 (±0.17)	–
COc1ccc2[nH]c([S+]([O-])Cc3ncc(C)c(OC)c3C)nc2c1 (stereo not drawn) [Omeprazole, reference compound]	–	–	–	–	–	–	–	–	–	–	–	–	–	–	inhibition at 30 mg/kg ([3]; Rattus norvegicus, 30 mg/kg): 67.5%; Ulcer index Mean(SE) ([3]; 30 mg/kg): 23.33 (±2.21); Gastric content ([3]; 30 mg/kg): 3.5 (±0.68); pH ([3]; 30 mg/kg): 4.65 (±0.19)
CNC(=C[N+](=O)[O-])NCCSCc1ccc(CN(C)C)o1 [Ranitidine, ranitidine, reference compound]	–	–	–	–	–	–	–	–	–	–	–	–	–	–	inhibition at 50 mg/kg ([1]; Rattus norvegicus, po, 120 h, 50 mg/kg per orally daily for five days): 74.2%; Ulcer index Mean(SE) ([1]; 50 mg/kg per orally daily for five days): 11.66; Acidity Total mEg (Pylorus ligated rats; 50 mg/kg): 31.8 (±1.91) m Eg; Gastric content (Pylorus ligated rats; 50 mg/kg): 1.82 (±0.44); Ulcer index Mean(SE) (Pylorus ligated rats; 50 mg/kg): 10.83 (±3.21); pH (Pylorus ligated rats; 50 mg/kg): 4.75 (±0.22); inhibition at 50 mg/kg (Pylorus ligated rats; Rattus norvegicus, 50 mg/kg): 78.4%; inhibition at 50 mg/kg ([2]; Rattus norvegicus, po, rats, 50 mg/kg per orally, 4° C. for 2 hours): 78.8%; Ulcer index Mean(SE) ([2]; rats, 50 mg/kg per orally, 4° C. for 2 hours): 08.62; inhibition at 50 mg/kg ([3]; Rattus norvegicus, 50 mg/kg): 61.3%; Ulcer index Mean(SE) ([3]; 50 mg/kg): 25.83 (±2.22); Acidity Total mEg ([3]; 50 mg/kg): 26.74 (±1.54) mEg; Gastric content ([3]; 50 mg/kg): 5.0 (±0.48); pH ([3]; 50 mg/kg): 4.96 (±0.13)
O=c1cc(-c2ccccc2)oc2cc(OCCCN3CCCCC3)cc(O)c12 [CPP-2, 5-Hydroxy-2-phenyl-7-(3-piperidin-1-yl-propoxy)-chromen-4-one]	66.8	14.99	29.06 (±2.20) m Eg	2.60 (±0.24)	15.80 (±2.71)	3.25 (±0.11)	68.5	61.4	15.71	36.2	28.83 (±2.71)	44.60 (±4.12) mEg	3.2 (±0.62)	3.33 (±0.16)	–
CN1CCN(CCCCOc2cc(O)c3c(=O)cc(-c4ccccc4)oc3c2)CC1 [NMC-3, 5-Hydroxy-7-[4-(4-methyl-piperzin-1-yl]-butoxy)-2-phenyl chromen-4-one]	–	30.00	43.48 (±2.50) m Eg	1.92 (±0.20)	33.33 (±2.47)	3.54 (±0.15)	–	–	17.13	–	42.50 (±3.09)	33.48 (±2.28) mEg	4.5 (±1.12)	4.50 (±0.18)	Inhibition % [1, 5]: 33.52%; Inhibition % (Pylorus ligated rats; 25 mg/kg): 33.49%; Inhibition % [2, 7]: 57.92%; Inhibition % ([3]; 25 mg/kg): 36.25%
sucralfate [reference compound]	–	–	–	–	–	–	–	–	–	–	–	–	–	–	Inhibition % ([3]; 400 mg/kg): 87.50%; Ulcer index Mean(SE) ([3]; 400 mg/kg): 08.33 (±2.23); Acidity Total mEg ([3]; 400 mg/kg): 58.00 (±2.30) mEg; Gastric content ([3]; 400 mg/kg): 3.01 (±0.48) and 3.0 (±0.48); pH ([3]; 400 mg/kg): 3.00 (±0.19)
